# The source made the active and inactive calls.
# What was measured:
# Estrogen receptor beta [1] = biological target: T1, Estrogen receptor beta (Homo sapiens, UniProt Q92731);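 also: recombinant ER-beta bound to coactivator SRC1 peptide in presence of estradiol agonist; inhibitors block coactivator peptide binding and lower the FRET signal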
# Estrogen receptor beta [2] = biological target: T1, Estrogen receptor beta; assay: ERβ–SRC-3 coactivator interaction inhibitors, confirmation, orthogonal assay, biochemical, ELISA, streptavidin-HRP readout (AID 1060)
# Cytochrome P450 2C19 [3] = biological target: T2, Cytochrome P450 2C19 (Homo sapiens, UniProt P33261); assay: qHTS Assay for Inhibitors and Substrates of Cytochrome P450 2C19. [Related pubchem assays: 410 ]; type: ADME; conditions: read-out: Potency
# [4] = biological target: Ubiquitin carboxyl-terminal hydrolase BAP1 (Homo sapiens, UniProt Q92560); assay: BAP1 deubiquitinase inhibitors, dose response, biochemical (AID 714); type: functional
# [5] = biological target: Bifunctional protein GlmU (Mycobacterium tuberculosis, UniProt P9WMN3); assay: Inhibitors of Mycobacterial Glucosamine-1-phosphate acetyl transferase (GlmU). Secondary screen.; parameters: species or system Mycobacterium tuberculosis H37Rv
# [6] = tested on: Streptococcus sp. 'group A'; assay: growth inhibition of control SK(-) GAS strain, dose response, counter-screen for streptokinase expression inhibitor project, luminescence, kanamycin, BacTiterGlo, confirmation (AID 1900); type: functional, organism-based
# Streptokinase A = biological target: T3, Streptokinase A (Streptococcus pyogenes serotype M1, UniProt P10520); assay: S. pyogenes streptokinase expression inhibitors, potency, dose response, plasminogen activation absorbance, OD405 (AID 1914); type: functional, Streptococcus pyogenes M1 GAS;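 also: secreted streptokinase activity via plasminogen activation per viability signal from cell pellet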
# T3 sequence (P10520 whole entry): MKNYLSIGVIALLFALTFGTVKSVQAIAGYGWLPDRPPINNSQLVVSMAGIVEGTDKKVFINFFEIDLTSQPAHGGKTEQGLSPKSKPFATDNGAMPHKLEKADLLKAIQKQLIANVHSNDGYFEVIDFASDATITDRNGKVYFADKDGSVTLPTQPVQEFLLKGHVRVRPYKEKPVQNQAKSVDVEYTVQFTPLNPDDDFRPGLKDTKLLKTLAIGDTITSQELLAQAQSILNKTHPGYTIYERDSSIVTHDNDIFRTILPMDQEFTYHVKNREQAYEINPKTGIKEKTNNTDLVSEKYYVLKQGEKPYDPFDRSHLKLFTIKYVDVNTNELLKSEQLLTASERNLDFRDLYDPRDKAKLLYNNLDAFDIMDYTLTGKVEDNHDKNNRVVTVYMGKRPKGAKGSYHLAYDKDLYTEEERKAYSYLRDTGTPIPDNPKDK
# Streptococcus = assay: Group A Streptococcus viability loss, dose response, counter-screen for streptokinase expression inhibitor project, luminescence, BacTiterGlo (AID 1915); type: functional, organism-based;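 also: potency for reduction of bacterial viability or growth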
# [7] = Vero cell cytotoxicity, dose response, cytotoxicity control for Vif-APOBEC3G degradation inhibitor project, Vero cells (AID 1117358); type: functional; conditions: Human immunodeficiency virus 1, Vero
# [8] = biological target: T4, Mannose-6-phosphate isomerase (Homo sapiens, UniProt P34949); assay: human PMI inhibitors, high substrate, primary screen, biochemical, fluorescence intensity, high mannose 6-phosphate (AID 1220)
# T4 sequence (P34949 whole entry): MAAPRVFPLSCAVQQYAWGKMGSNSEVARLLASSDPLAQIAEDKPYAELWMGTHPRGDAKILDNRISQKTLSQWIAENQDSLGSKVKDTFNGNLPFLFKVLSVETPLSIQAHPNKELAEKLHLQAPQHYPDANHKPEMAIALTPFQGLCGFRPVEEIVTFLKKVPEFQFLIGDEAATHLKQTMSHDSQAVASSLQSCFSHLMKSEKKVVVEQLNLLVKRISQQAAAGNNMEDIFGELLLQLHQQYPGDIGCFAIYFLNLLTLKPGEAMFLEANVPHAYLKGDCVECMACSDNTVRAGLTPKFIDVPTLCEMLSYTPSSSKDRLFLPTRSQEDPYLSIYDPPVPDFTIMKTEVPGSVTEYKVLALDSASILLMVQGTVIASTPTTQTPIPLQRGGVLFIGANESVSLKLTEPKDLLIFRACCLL
# [9] = Luminescent dose response cell-based high throughput screening assay for inhibitors of the Janus kinase 2 mutant JAK2V617F. [Related pubchem assays: 1446 (Primary screen.), 1521 (Confirmation assay.), 1486 (Counter screen.)]; type: functional
# [10] = biological target: T5, Replicative DNA helicase DnaB (Mycobacterium tuberculosis, UniProt P9WMR3); assay: DnaB intein splicing inhibitors, dose response, biochemical, cell-free fluorescence (AID 449749); type: functional
# T5 sequence (P9WMR3 whole entry): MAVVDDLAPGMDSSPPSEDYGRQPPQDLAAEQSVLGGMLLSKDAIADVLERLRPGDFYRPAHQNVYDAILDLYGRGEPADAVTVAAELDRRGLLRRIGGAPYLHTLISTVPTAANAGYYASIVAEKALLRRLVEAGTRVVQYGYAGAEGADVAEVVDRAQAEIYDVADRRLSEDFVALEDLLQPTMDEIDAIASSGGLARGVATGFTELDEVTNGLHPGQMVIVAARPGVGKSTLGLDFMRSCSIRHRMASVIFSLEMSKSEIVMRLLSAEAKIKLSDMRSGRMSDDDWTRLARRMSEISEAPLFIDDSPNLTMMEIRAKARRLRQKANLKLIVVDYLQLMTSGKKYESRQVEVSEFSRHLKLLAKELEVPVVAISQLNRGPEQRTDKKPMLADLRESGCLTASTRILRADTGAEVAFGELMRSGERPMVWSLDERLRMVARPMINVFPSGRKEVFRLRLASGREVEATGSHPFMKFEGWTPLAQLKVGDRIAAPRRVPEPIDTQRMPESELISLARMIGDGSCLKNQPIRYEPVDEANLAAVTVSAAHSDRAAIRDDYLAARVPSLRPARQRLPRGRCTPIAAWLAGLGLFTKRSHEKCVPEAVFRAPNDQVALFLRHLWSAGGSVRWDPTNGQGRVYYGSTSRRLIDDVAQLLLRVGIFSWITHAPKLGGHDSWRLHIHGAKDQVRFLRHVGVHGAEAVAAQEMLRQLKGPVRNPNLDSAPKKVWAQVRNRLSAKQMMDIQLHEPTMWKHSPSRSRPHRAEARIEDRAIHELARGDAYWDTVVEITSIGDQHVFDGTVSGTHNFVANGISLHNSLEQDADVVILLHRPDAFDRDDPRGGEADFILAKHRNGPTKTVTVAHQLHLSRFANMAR
# Protein RecA = biological target: T6, Protein RecA (Mycobacterium tuberculosis, UniProt P9WHJ3); assay: Fluorescence Cell-Free Homogeneous Dose Retest to Identify Inhibitors of RecA-Intein Splicing Activity. [Related pubchem assays (depositor defined):AID2097, AID2223, AID489010, AID492950]; type: functional
# T6 sequence (P9WHJ3 whole entry): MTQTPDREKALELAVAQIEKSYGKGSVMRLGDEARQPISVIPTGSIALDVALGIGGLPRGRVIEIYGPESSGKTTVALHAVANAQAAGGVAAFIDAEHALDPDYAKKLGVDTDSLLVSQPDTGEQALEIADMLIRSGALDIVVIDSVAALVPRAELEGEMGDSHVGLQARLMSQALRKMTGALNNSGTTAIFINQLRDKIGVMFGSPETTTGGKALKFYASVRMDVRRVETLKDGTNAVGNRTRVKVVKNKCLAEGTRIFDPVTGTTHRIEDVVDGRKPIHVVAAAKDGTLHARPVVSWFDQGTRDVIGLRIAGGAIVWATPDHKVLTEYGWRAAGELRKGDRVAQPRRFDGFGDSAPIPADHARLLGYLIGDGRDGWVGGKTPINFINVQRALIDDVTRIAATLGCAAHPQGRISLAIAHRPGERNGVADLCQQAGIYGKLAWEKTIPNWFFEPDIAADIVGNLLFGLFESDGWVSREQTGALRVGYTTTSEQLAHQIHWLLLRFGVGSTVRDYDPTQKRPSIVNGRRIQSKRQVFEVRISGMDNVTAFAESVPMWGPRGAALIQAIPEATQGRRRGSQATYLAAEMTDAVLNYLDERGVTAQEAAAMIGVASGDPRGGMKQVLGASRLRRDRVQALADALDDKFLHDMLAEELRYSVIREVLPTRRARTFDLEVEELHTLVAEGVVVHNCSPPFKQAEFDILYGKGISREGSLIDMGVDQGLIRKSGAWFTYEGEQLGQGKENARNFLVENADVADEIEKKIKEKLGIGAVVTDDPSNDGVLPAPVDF
# [11] = biological target: T7, Glutathione-S-transferase (Schistosoma japonicum, UniProt Q26513); assay: biotin-GST/anti-GST TR-FRET signal inhibitors, dose response, artefact control for Vif-APOBEC3G degradation inhibitor project, biochemical (AID 1117362); type: functional
# T7 sequence (Q26513 whole entry): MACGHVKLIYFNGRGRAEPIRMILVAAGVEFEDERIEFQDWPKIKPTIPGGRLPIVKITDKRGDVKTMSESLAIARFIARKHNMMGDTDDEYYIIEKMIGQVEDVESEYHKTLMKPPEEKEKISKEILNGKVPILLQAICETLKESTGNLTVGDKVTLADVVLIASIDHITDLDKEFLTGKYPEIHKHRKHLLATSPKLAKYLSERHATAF
# [12] = biological target: T8, Heat shock factor protein 1 (Mus musculus, UniProt P38532); assay: HSF1 potentiators in luciferase reporter cells, confirmation, cell-based, NIH3T3, luminescence, dose retest (AID 435004); type: functional;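 also: stress induced by proteasome inhibitor MG132 added 30 min after compound; luciferase reporter driven by HSF1 response element in NIH3T3 cells; actives raise luminescence as potentiators of the MG132 stress response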
# T8 sequence (P38532 whole entry): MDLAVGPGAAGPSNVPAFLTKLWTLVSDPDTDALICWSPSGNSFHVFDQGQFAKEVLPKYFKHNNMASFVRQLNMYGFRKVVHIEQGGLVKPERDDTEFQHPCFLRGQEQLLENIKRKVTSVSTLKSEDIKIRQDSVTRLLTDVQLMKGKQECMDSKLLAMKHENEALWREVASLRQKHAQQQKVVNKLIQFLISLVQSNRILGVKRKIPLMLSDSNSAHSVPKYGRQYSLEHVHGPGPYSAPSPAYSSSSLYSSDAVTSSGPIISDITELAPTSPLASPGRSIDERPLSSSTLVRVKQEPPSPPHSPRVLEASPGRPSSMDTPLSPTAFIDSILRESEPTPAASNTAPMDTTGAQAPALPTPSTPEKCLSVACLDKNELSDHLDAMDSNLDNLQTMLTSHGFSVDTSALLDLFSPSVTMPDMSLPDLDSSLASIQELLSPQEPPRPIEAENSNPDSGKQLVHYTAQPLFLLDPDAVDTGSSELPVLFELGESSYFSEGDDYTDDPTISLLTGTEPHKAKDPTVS
# [13] = inhibitors of HIV Env-driven cell fusion, dose response, cherry-pick (AID 652057); type: functional, cell-based
# [14] = CEM21 lymphoblast cell cytotoxicity, dose response, cytotoxicity control for viral fusion inhibitor project, CellTiter-Glo luminescence, cherry-picked (AID 652042); type: functional, cell-based;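 also: potency for signal decrease meaning cytotoxicity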
# [15] = ZM109 Env clade C HIV-1 fusion inhibitors, dose response, HeLa effector, CEM target cells, luciferase, cherry-pick (AID 652058); type: functional, cell-based
# [16] = off-target signal loss in HeLa-CEM21 co-culture – HeLa F-luc CTL cells, cherry-picked, counter-screen for HIV-1 Env fusion inhibitor project, dose response (AID 652040); type: functional, cell-based;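 also: potency for signal decrease marking cytotoxic or nonspecific inhibition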
# [17] = inhibitors of clade B AD8 Env fusion, dose response, cell-based, cherry-pick (AID 652062); type: functional;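 also: luciferase signal from cell-cell fusion driven by HIV-1 clade B AD8 Env; potency is for inhibitors of fusion seen as a drop in luminescence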
# [18] = biological target: T8, Heat shock factor protein 1; assay: inhibition of MG132-induced HSE-luciferase signal, confirmation, cell-based, NIH3T3, luminescence, dose retest (AID 2382); type: functional;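 also: NIH3T3 fibroblasts with HSF1-driven luciferase reporter stressed by proteasome inhibitor MG132; luminescence from HSF1-driven luciferase expression after 8 hours of MG132 stress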
# Cytochrome P450 2C19 [19] = biological target: T2, Cytochrome P450 2C19; assay: Cytochrome panel assay with activity outcomes. Panel member name: p450-cyp2c19 Compounds with AC50 equal or less than 10 uM are considered active; type: functional
# T2 sequence (P33261 whole entry): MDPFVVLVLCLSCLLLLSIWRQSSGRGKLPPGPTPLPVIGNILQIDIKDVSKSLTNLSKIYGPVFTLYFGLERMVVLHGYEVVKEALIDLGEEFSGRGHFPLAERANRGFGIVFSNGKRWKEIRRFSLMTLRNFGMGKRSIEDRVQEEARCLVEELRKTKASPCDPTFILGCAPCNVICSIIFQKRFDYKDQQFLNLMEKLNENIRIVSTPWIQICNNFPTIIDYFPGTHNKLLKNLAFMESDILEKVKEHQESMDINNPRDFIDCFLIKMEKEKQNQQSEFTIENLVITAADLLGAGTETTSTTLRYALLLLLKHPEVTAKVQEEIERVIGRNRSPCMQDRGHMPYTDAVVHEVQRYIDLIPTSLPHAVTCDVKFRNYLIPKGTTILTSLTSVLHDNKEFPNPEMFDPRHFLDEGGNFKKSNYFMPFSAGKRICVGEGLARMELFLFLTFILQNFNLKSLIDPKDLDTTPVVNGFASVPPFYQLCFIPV
# T1 sequence (Q92731 whole entry): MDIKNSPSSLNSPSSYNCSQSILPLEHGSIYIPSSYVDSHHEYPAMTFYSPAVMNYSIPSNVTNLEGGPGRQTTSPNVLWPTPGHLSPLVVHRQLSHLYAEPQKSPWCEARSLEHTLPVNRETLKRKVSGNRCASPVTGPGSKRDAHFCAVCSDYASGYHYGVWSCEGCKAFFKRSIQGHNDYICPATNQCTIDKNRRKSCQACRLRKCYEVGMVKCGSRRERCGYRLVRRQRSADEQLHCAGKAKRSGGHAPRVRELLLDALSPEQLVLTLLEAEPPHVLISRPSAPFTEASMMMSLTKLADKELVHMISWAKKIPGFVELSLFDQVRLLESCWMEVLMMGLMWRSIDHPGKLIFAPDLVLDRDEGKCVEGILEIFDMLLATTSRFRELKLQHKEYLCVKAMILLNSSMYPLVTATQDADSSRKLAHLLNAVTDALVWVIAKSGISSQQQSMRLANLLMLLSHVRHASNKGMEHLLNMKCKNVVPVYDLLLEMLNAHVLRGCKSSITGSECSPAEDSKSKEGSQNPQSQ
# Ubiquitin carboxyl-terminal hydrolase BAP1, sequence (Q92560 whole entry): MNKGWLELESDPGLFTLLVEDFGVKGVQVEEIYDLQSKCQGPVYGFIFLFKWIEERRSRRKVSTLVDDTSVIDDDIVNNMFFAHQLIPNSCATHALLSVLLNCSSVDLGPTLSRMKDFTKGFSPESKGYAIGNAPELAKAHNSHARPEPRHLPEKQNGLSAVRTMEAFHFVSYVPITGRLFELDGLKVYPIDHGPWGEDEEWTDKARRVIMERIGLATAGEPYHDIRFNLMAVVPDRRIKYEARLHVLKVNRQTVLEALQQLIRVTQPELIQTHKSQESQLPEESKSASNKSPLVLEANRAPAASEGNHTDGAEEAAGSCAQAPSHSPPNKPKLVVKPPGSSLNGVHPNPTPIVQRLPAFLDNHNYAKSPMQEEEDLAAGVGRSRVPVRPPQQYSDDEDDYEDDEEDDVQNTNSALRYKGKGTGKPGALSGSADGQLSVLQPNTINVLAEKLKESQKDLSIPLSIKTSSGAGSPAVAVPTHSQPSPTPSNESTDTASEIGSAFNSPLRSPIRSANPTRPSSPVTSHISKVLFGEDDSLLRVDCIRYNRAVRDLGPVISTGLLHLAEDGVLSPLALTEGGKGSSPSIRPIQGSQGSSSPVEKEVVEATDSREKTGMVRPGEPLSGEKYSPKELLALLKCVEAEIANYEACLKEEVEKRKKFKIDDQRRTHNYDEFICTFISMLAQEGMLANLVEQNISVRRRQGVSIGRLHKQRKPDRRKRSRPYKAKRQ
# Bifunctional protein GlmU, sequence (P9WMN3 whole entry): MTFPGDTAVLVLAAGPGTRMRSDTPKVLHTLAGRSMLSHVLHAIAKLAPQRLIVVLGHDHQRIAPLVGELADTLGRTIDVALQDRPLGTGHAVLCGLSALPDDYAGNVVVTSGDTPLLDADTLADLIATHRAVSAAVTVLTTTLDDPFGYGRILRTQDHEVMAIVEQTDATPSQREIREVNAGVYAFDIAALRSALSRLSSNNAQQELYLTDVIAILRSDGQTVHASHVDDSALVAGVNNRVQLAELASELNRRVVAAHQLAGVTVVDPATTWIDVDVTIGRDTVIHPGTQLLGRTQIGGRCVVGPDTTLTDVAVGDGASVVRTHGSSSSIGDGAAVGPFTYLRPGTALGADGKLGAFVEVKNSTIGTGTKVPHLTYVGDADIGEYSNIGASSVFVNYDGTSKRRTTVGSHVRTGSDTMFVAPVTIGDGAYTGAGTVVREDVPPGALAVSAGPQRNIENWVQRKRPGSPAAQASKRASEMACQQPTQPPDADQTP
compound,measurement,setting,value
N#Cc1ccsc1NC(=O)CSc1ncnc2ccccc12,IC50,Estrogen receptor beta [1],> 50 µM (not active)
same,IC50,Estrogen receptor beta [2],< 0.023 µM (not active)
CCCCCCC(=O)Cc1cc(OC)c(OC)cc1C=C(C(=O)OCC)C(=O)OCC,AC50,Cytochrome P450 2C19 [3],3.16 µM (inconclusive)
O=C(NCc1ccccc1)c1cnc2ccc(S(=O)(=O)Nc3ccc4c(c3)OCCO4)cc2c1O,IC50,[4],> 50 µM (not active)
O=C1CCCC(=O)C1=NNc1cccc(C(=O)O)c1,IC50,[5],120 µM (active)
O=c1c2c(nc(NCCO)n1CC1CCCCC1)-c1ccccc1CC21CCCC1,EC50,[6],2.67 µM (active)
same,EC50,Streptokinase A,3.48 µM (active)
same,EC50,Streptococcus,19.3 µM (inconclusive)
same,CC50,[7],> 40 µM (active)
O=[N+]([O-])c1c(NCCO)cc(N2CCCCC2)c2nonc12,IC50,[8],> 50 µM (not active)
CC(C)(C)/C(O)=C/c1nc2cc(Cl)ccc2oc1=O,IC50,[9],1.7 µM (active)
CC1=CC(C)(C)Nc2cc(C)c(C)cc21,IC50,[4],> 50 µM (not active)
COc1cc([C@@H]2Oc3cc([C@H]4Oc5cc(O)cc(O)c5C(=O)[C@H]4O)ccc3O[C@H]2CO)ccc1O,AC50,Cytochrome P450 2C19 [3],15.8 µM (inconclusive)
CCN(CC)c1ccc2c(c1)CCCN2,AC50,[10],> 120 µM (inactive)
same,EC50,Protein RecA,> 380 µM (inconclusive)
same,IC50,[11],48.6 µM (active)
same,CC50,[7],> 40 µM (active)
O=C(Oc1ccc2c(c1)OCO2)c1cc2c(s1)CCC2,IC50,Estrogen receptor beta [1],< 1.56 µM (active)
same,IC50,Estrogen receptor beta [2],< 0.023 µM (not active)
same,EC50,[12],> 260 µM (inactive)
same,AC50,[13],10.4 µM (active)
same,AC50,[14],2.01 µM (active)
same,AC50,[15],3.31 µM (active)
same,AC50,[16],10.8 µM (active)
same,AC50,[17],7.2 µM (active)
Nc1nc(N)c2nc(-c3ccccc3)c(N)nc2n1,IC50,[9],0.807 µM (active)
same,EC50,[18],> 195 µM (not active)
same,AC50,Cytochrome P450 2C19 [19],inactive
